Columns and labels:
normotonen Ratten = assay: Blood pressure before and after i.v. application in anaesthetised normotensive rats; assay type: in vivo; conditions: Rattus norvegicus, iv, 1 mg/kg i.v., read-out: BD: Blutdrucksenkung in % bei normotonen Ratten
Protocol: Die erfindungsgemäßen neuen Verbindungen werden Ratten mit einer Dosis von 1 mg/kg intravenös appliziert und der Blutdruck vor und nach der Applikation bestimmt.

[1] = system: Isoprenalin stimulierten Ratten; assay: Lowering of heart rate in rats stimulated with subcutaneous isoprenaline; assay type: in vivo; conditions: anaesthetised rats, 1 mg/kg i.v., heart rate stimulated by subcutaneous isoprenaline
Protocol: In einem zweiten Test wird die Herzfrequenz von Ratten durch subkutane Applikation von Isoprenalin stimuliert. Dann werden die erfindungsgemäßen Verbindungen appliziert (1 mg/kg i.v.) und 'der Effekt auf die Erniedrigung der Herzfrequenz gemessen.

| SMILES | inhibition in vivo at 1 mg/kg (normotonen Ratten) | HR: Erniedrigung der Herzfrequenz in absoluten Zahlen bei Isoprenalin stimulierten Ratten (subkutane Applikation) [1] |
| --- | --- | --- |
| CC1=C(C(=O)OCCNCC(O)COc2cccc3ccccc23)C(c2cccc([N+](=O)[O-])c2)C(C(=O)OC(C)C)=C(C)N1 (centres unmarked) [Beispiel 1] | 20 to 30% | ↓↓ (40 < 65) |
| COC(=O)C1=C(C)NC(C)=C(C(=O)OCCCCCNCC(O)COc2cccc3ccccc23)C1c1cccc([N+](=O)[O-])c1 (centres unmarked) [Beispiel 16] | 10 to 20% | ↓ (15 - < 40) |
| COC(=O)C1=C(C)NC(C)=C(C(=O)OCCOCCNCC(O)COc2cccc3ccccc23)C1c1cccc([N+](=O)[O-])c1 (centres unmarked) [Beispiel 20] | 10 to 20% | ↓↓ (40 < 65) |
| COC(=O)C1=C(C)NC(C)=C(C(=O)OCCNCC(O)COc2ccc(CC(N)=O)cc2)C1c1cccc([N+](=O)[O-])c1 (centres unmarked) [Beispiel 25] | 5 to 10% | ↓ (15 - < 40) |
| CC1=C(C(=O)OCCCNCC(O)COc2cccc3[nH]ccc23)C(c2cccc([N+](=O)[O-])c2)C(C(=O)OC(C)C)=C(C)N1 (centres unmarked) [Beispiel 26] | 10 to 20% | ↓↓↓ (65 < 100) |
| CC1=C(C(=O)OCCOCCNCC(O)COc2cccc3ccccc23)C(c2cccc([N+](=O)[O-])c2)C(C(=O)OC(C)C)=C(C)N1 (centres unmarked) [Beispiel 30] | 30 to 40% | (↓) (10) |
| CC1=C(C(=O)OCCSCCNCC(O)COc2cccc3ccccc23)C(c2cccc([N+](=O)[O-])c2)C(C(=O)OC(C)C)=C(C)N1 (centres unmarked) [Beispiel 31] | 20 to 30% | ↓↓ (40 < 65) |
| COC(=O)C1=C(C)NC(C)=C(C(=O)OCCN(C)CCCNCC(O)COc2cccc3ccccc23)C1c1cccc([N+](=O)[O-])c1 (centres unmarked) [Beispiel 32] | 10 to 20% | ↓ (15 - < 40) |
| COC(=O)C1=C(C)NC(C)=C(C(=O)OCCNCC(O)COc2cccc3ccccc23)C1c1cccc(Cl)c1 (centres unmarked) [Beispiel 68] | 20 to 30% | ↓ (15 - < 40) |
| COC(=O)C1=C(C)NC(C)=C(C(=O)OCCNCC(O)COc2cccc3ccccc23)C1c1ccccc1[N+](=O)[O-] (centres unmarked) [Beispiel 69] | 10 to 20% | ↓ (15 - < 40) |

Source: patent EP0179386A2, “1,4-Dihydropyridine hydroxyamines, process for their preparation and their use as pharmaceutical agents” (BAYER AG, priority 1984, dated 1986)
